We go through 19 molecules from patent US9242966B2, “Phthalazines as potassium ion channel inhibitors” (BRISTOL-MYERS SQUIBB COMPANY, priority 2013, dated 2016).

In one data set the target is T1, human KV 1.5 (Homo sapiens, UniProt P22460).
T1 construct: expressed in transfected cells; host or cells: mammalian L-929 cells (mouse fibroblast line)
T1 sequence (P22460 whole entry): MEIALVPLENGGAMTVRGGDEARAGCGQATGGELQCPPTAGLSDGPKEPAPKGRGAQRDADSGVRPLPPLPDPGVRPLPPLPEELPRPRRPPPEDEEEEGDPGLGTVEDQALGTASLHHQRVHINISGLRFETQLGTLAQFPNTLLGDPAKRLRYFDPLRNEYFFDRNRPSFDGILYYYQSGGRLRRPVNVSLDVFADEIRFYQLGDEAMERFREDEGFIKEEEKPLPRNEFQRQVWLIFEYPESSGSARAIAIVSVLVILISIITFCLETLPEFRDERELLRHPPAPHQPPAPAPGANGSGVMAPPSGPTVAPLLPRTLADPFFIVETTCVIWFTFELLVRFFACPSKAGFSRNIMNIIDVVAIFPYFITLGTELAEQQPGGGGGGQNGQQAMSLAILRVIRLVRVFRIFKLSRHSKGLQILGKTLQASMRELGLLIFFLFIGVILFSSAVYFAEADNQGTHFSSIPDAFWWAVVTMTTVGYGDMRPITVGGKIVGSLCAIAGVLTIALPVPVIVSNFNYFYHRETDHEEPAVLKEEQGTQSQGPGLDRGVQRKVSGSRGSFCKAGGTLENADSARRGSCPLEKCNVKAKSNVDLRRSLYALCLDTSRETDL
Description: Block of IKur current in patch clamped L-929 cells expressing human Kv1.5. Format: cell-based. The conditions noted are these: 0.3 μM; patch clamped mammalian L-929 cells stably expressing human Kv1.5 (IKur). The source says: 1. Synders, D. J.; et al., “A rapidly activating and slowly inactivating potassium channel cloned from human heart: functional analysis after stable mammalian cell culture expression”, J. Gen. Physiol., 101:513-543 (1993). […]
A general note: Patch clamp records ionic current or voltage across a cell membrane.
`CC(Nc1nnc(-c2cncc(S(N)(=O)=O)c2)c2cccc(-c3ccccc3)c12)c1ccccn1` (centres unmarked) [Example 34, 5-(5-Phenyl-4-((1-(pyridin-2-yl)ethyl)amino)phthalazin-1-yl)pyridine-3-sulfonamide]: the “KV1_5% Inh L929 @0.3 μM” value was found to be 84%.

Staying with this data set, now noted: L929, 0.3 μM; patch clamped mammalian L-929 cells stably expressing human Kv1.5 (IKur); read-out: KV1_5% Inh L929 @0.3 μM.
Take `CC(Nc1nnc(-c2cncc(S(N)(=O)=O)c2)c2cccc(-c3ccccc3)c12)c1ccccn1` (centres unmarked) [Example 33, 5-(5-Phenyl-4-((1-(pyridin-2-yl)ethyl)amino)phthalazin-1-yl)pyridine-3-sulfonamide]: the inhibition at 0.3 µM was 71.1%.

In the case of `CC(C)(Nc1nnc(-c2cncc(S(N)(=O)=O)c2)c2cccc(-c3ccccc3)c12)c1ccccn1` [Example 35, 5-(5-Phenyl-4-((2-(pyridin-2-yl)propan-2-yl)amino)phthalazin-1-yl)pyridine-3-sulfonamide], the inhibition at 0.3 µM stood at 86.3%.

As to `NS(=O)(=O)c1cncc(-c2nnc(NCc3c(F)cccc3F)c3c(-c4ccccc4)cccc23)c1` [Example 36, 5-(4-((2,6-Difluorobenzyl)amino)-5-phenylphthalazin-1-yl)pyridine-3-sulfonamide], the inhibition at 0.3 µM amounted to 91.1%.

Turning to `NS(=O)(=O)c1cncc(-c2nnc(NCc3ncccc3F)c3c(-c4ccccc4)cccc23)c1` [Example 37, 5-(4-((3-Fluoropyridin-2-yl)methylamino)-5-phenylphthalazin-1-yl)pyridine-3-sulfonamide], the inhibition at 0.3 µM is 78.6%.

For the molecule `NS(=O)(=O)c1cncc(-c2nnc(NCc3cccc(C(F)(F)F)c3)c3c(-c4ccccc4)cccc23)c1` [Example 38, 5-(5-Phenyl-4-((3-(trifluoromethyl)benzyl)amino)phthalazin-1-yl) pyridine-3-sulfonamide], the inhibition at 0.3 µM stood at 94.9%.

Take `NS(=O)(=O)c1cncc(-c2nnc(NCc3cc(Cl)cc(Cl)c3)c3c(-c4ccccc4)cccc23)c1` [Example 39, 5-(4-((3,5-Dichlorobenzyl)amino)-5-phenylphthalazin-1-yl)pyridine-3-sulfonamide]: the inhibition at 0.3 µM is 78.4%.

As to `NS(=O)(=O)c1cncc(-c2nnc(NCc3cccc(OC(F)(F)F)c3)c3c(-c4ccccc4)cccc23)c1` [Example 40, 5-(5-Phenyl-4-((3-(trifluoromethoxy)benzyl)amino)phthalazin-1-yl)pyridine-3-sulfonamide], the inhibition at 0.3 µM is 90.2%.

As for `NS(=O)(=O)c1cncc(-c2nnc(NC[C@H](O)c3ccccc3)c3c(-c4ccccc4)cccc23)c1` [Example 41, (R)-5-(4-((2-Hydroxy-2-phenylethyl)amino)-5-phenylphthalazin-1-yl)pyridine-3-sulfonamide], the inhibition at 0.3 µM was 93.5%.

For `C[C@@H](Nc1nnc(-c2cncc(S(N)(=O)=O)c2)c2cccc(-c3ccccc3)c12)c1ccccc1` [Example 42, (R)-5-(5-Phenyl-4-((1-phenylethyl)amino)phthalazin-1-yl)pyridine-3-sulfonamide], the inhibition at 0.3 µM came out at 91.2%.

As for `C[C@H](Nc1nnc(-c2cncc(S(N)(=O)=O)c2)c2cccc(-c3ccccc3)c12)c1ccccc1` [Example 43, (S)-5-(5-Phenyl-4-((1-phenylethyl)amino)phthalazin-1-yl)pyridine-3-sulfonamide], the inhibition at 0.3 µM was 86.8%.

As to `O=C(NCc1ccc(OC(F)(F)F)cc1)c1cncc(-c2nnc(NCc3ccccn3)c3c(-c4ccccc4)cccc23)c1` [Example 44, 5-(5-Phenyl-4-((pyridin-2-ylmethyl)amino)phthalazin-1 yl)-N-(4-(trifluoromethoxy)benzyl)nicotinamide], the inhibition at 0.3 µM was determined as 96.5%.

With `Cc1cnc(CNC(=O)c2cncc(-c3nnc(NCc4ccccn4)c4c(-c5ccccc5)cccc34)c2)cn1` [Example 45, N-((5-Methylpyrazin-2-yl)methyl)-5-(5-phenyl-4-((pyridin-2-ylmelhyl)amino)phthalazin-1-yl) nicotinamide], the inhibition at 0.3 µM amounted to 75.6%.

Turning to `COCCNC(=O)c1cncc(-c2nnc(NCc3ccccn3)c3c(-c4ccccc4)cccc23)c1` [Example 46, N-(2-Methoxyethyl)-5-(5-phenyl-4-((pyridin-2-ylmethyl)amino)phthalazin-1-yl)nicotinamide], the inhibition at 0.3 µM was 51.1%.

In the case of `CC(C)(C)CCNC(=O)c1cncc(-c2nnc(NCc3ccccn3)c3c(-c4ccccc4)cccc23)c1` [Example 47, N-(3,3-Dimcthylbutyl)-5-(5-phenyl-4-((pyridin-2-ylmethyl)amino)phthalazin-1-yl)nicotinamide], the inhibition at 0.3 µM worked out at 96.4%.

With `CC(C)OCCNC(=O)c1cncc(-c2nnc(NCc3ccccn3)c3c(-c4ccccc4)cccc23)c1` [Example 48, N-(2-Isopropoxyethyl)-5-(5-phenyl-4-((pyridin-2-ylmethyl)amino)phthalazin-1-yl)nicotinamide], the inhibition at 0.3 µM was 71.1%.

`O=C(N[C@H]1CCC[C@@H]1OCc1ccccc1)c1cncc(-c2nnc(NCc3ccccn3)c3c(-c4ccccc4)cccc23)c1` [Example 49]: the inhibition at 0.3 µM is 93.9%.

As to `O=C(NCCc1ccccc1F)c1cncc(-c2nnc(NCc3ccccn3)c3c(-c4ccccc4)cccc23)c1` [Example 50, N-(2-Fluorophenethyl)-5-(5-phenyl-4-((pyridin-2-ylmethyl)amino)phthalazin-1-yl)nicotinamide], the inhibition at 0.3 µM is 98.6%.

Test system in the next data set: not listed separately
Description: Rat PO PK with pH modulators (Pentagastrin or Famotidine pre-treatment). Format: in vivo.
Conditions: not given
The source says:
(§1) Example 16 is a prodrug of Example 1.
`O=P(O)(O)NS(=O)(=O)c1cncc(-c2nnc(NCc3ccccn3)c3c(-c4ccccc4)cccc23)c1` [Example 16, 5-(5-Phenyl-4-(pyridin-2-ylmethylamino)phthalazin-1-yl)pyridin-3-ylsulfonylphosphoramidic acid]: the “Effect of pH modulators on PO PK (pH dependent absorption)” value is recorded as “mitigated the pH dependent absorption”.

Test system in a further data set: not listed separately
The data set is described as follows: In vivo rat PK evaluation of pro-drug cleavage to parent. Conditions: all doses administered PO, parent = Example 1.
Excerpt: as §1
With `O=P(O)(O)NS(=O)(=O)c1cncc(-c2nnc(NCc3ccccn3)c3c(-c4ccccc4)cccc23)c1` [Example 16, 5-(5-Phenyl-4-(pyridin-2-ylmethylamino)phthalazin-1-yl)pyridin-3-ylsulfonylphosphoramidic acid], the “Pro-drug cleavage to the respective parent compound” value is on record as “Pro-drug cleavage to the respective parent compound was demonstrated”.
